From patent publication US20100298141A1, “SUBSTITUTED PYRIDINE N-OXIDE HERBICIDES” (E. I. DU PONT DE NEMOURS AND COMPANY, priority 2007, published 2010)

Legend:
[1] = test system: duck salad; assay: Test C flooded paddy test; assay type: in vivo, Heteranthera limosa; settings: Flood
In short: (§1)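 Flooded 3 cm over soil; compound into paddy water; depth kept constant. Greenhouse 13–15 d.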

[2] = test system: morningglory; assay: Test A pre-/postemergence greenhouse test; assay type: in vivo, Ipomoea spp.; settings: for Plant response rating, Morningglory: 0 to 100 scale where 0 is no effect and 100 is complete control; for Morningglory plant response rating: 0 to 100 scale
In short: (§2)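 Seeds sown in a loam soil–sand blend got a preemergence directed soil spray of compound in a non-phytotoxic solvent mixture containing surfactant. Postemergence sprays of the same formulation went at the same time onto plants 2–10 cm tall at the one- to two-leaf stage. Injury was scored visually against untreated controls after about ten days in the greenhouse.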

[3] = test system: crabgrass; assay: Test A pre-/postemergence greenhouse test; assay type: in vivo, Digitaria sanguinalis; settings: for Plant response rating, Crabgrass, Large: 0 to 100 scale where 0 is no effect and 100 is complete control; for Crabgrass, Large plant response rating: 0 to 100 scale
In short: as §2

[4] = test system: corn; assay: Test A pre-/postemergence greenhouse test; assay type: in vivo, Zea mays; settings: for Plant response rating, Corn: 0 to 100 scale where 0 is no effect and 100 is complete control; for Corn plant response rating: 0 to 100 scale
In short: as §2

[5] = test system: redroot pigweed; assay: Test A pre-/postemergence greenhouse test; assay type: in vivo, Amaranthus retroflexus; settings: for Plant response rating, Pigweed: 0 to 100 scale where 0 is no effect and 100 is complete control; for Pigweed plant response rating: 0 to 100 scale
In short: as §2

[6] = test system: velvetleaf; assay: Test A pre-/postemergence greenhouse test; assay type: in vivo, Abutilon theophrasti; settings: for Plant response rating, Velvetleaf: 0 to 100 scale where 0 is no effect and 100 is complete control; for Velvetleaf plant response rating: 0 to 100 scale
In short: as §2

[7] = test system: barnyardgrass; assay: Test C flooded paddy test; assay type: in vivo, Echinochloa crus-galli; settings: Flood
In short: as §1

[8] = test system: giant foxtail; assay: Test A pre-/postemergence greenhouse test; assay type: in vivo, Setaria faberi; settings: for Plant response rating, Foxtail, Giant: 0 to 100 scale where 0 is no effect and 100 is complete control; for Foxtail, Giant plant response rating: 0 to 100 scale
In short: as §2

[9] = test system: barnyardgrass; assay: Test A pre-/postemergence greenhouse test; assay type: in vivo, Echinochloa crus-galli; settings: for Plant response rating, Barnyardgrass: 0 to 100 scale where 0 is no effect and 100 is complete control; for Barnyardgrass plant response rating: 0 to 100 scale
In short: as §2

[10] = test system: umbrella sedge; assay: Test C flooded paddy test; assay type: in vivo, Cyperus difformis; settings: Flood
In short: as §1

[11] = test system: rice; assay: Test C flooded paddy test; assay type: in vivo, Oryza sativa; settings: Flood
In short: as §1

[12] = test system: wheat; assay: Test A pre-/postemergence greenhouse test; assay type: in vivo, Triticum aestivum; settings: for Plant response rating, Wheat: 0 to 100 scale where 0 is no effect and 100 is complete control; for Wheat plant response rating: 0 to 100 scale
In short: as §2

[13] = 31 g ai/ha, scale 0 to 100 (0 no effect, 100 complete control)
[14] = 62 g ai/ha, scale 0 to 100 (0 no effect, 100 complete control)
[15] = 125 g ai/ha, scale 0 to 100, 0 no effect, 100 complete control, 13 to 15 days
[16] = 250 g ai/ha, scale 0 to 100, 0 no effect, 100 complete control, 13 to 15 days
[17] = Postemergence, 500 g ai/ha, 0 is no effect, 100 is complete control
[18] = Preemergence, 125 g ai/ha, 0 no effect, 100 complete control
[19] = Preemergence, 500 g ai/ha, 0 no effect, 100 complete control

Compound: CC(C)c1cc[n+]([O-])c(S(=O)(=O)Cc2c(C(F)(F)F)nn(C)c2OC(F)F)c1 [Compound 110]
- Plant response rating, Ducksalad [1, 13]: 0
- Plant response rating, Ducksalad [1, 14]: 0
- Plant response rating, Ducksalad [1, 15]: 50
- Plant response rating, Ducksalad [1, 16]: 75
- Plant response rating, Morningglory ([2]; Postemergence, 125 g ai/ha): 40
- Morningglory plant response rating [2, 17]: 100
- Morningglory plant response rating [2, 18]: 60
- Morningglory plant response rating [2, 19]: 100
- Plant response rating, Crabgrass, Large ([3]; Postemergence, 125 g ai/ha): 70
- Crabgrass, Large plant response rating [3, 17]: 90
- Crabgrass, Large plant response rating [3, 18]: 50
- Crabgrass, Large plant response rating [3, 19]: 100
- Plant response rating, Corn ([4]; Postemergence, 125 g ai/ha): 0
- Corn plant response rating [4, 17]: 60
- Corn plant response rating [4, 18]: 0
- Corn plant response rating [4, 19]: 60
- Plant response rating, Pigweed ([5]; Postemergence, 125 g ai/ha): 70
- Pigweed plant response rating [5, 17]: 80
- Pigweed plant response rating [5, 18]: 80
- Pigweed plant response rating [5, 19]: 100
- Plant response rating, Velvetleaf ([6]; Postemergence, 125 g ai/ha): 60
- Velvetleaf plant response rating [6, 17]: 80
- Velvetleaf plant response rating [6, 18]: 50
- Velvetleaf plant response rating [6, 19]: 100
- Plant response rating, Barnyardgrass [7, 13]: 0
- Plant response rating, Barnyardgrass [7, 14]: 0
- Plant response rating, Barnyardgrass [7, 15]: 0
- Plant response rating, Barnyardgrass [7, 16]: 0
- Plant response rating, Foxtail, Giant ([8]; Postemergence, 125 g ai/ha): 80
- Foxtail, Giant plant response rating [8, 17]: 90
- Foxtail, Giant plant response rating [8, 18]: 80
- Foxtail, Giant plant response rating [8, 19]: 100
- Plant response rating, Barnyardgrass ([9]; Postemergence, 125 g ai/ha): 60
- Barnyardgrass plant response rating [9, 17]: 80
- Barnyardgrass plant response rating [9, 18]: 90
- Barnyardgrass plant response rating [9, 19]: 100
- Plant response rating, Sedge, Umbrella [10, 13]: 0
- Plant response rating, Sedge, Umbrella [10, 14]: 0
- Plant response rating, Sedge, Umbrella [10, 15]: 0
- Plant response rating, Sedge, Umbrella [10, 16]: 30
- Plant response rating, Rice [11, 13]: 0
- Plant response rating, Rice [11, 14]: 0
- Plant response rating, Rice [11, 15]: 0
- Plant response rating, Rice [11, 16]: 0
- Plant response rating, Wheat ([12]; Postemergence, 125 g ai/ha): 20
- Wheat plant response rating [12, 17]: 60
- Wheat plant response rating [12, 18]: 30
- Wheat plant response rating [12, 19]: 70

Compound: Cn1nc(C(F)(F)C(F)(F)F)c(CS(=O)(=O)c2ccc(Cl)c[n+]2[O-])c1OCC(F)(F)F [Compound 100]
- Plant response rating, Ducksalad [1, 14]: 0
- Plant response rating, Ducksalad [1, 16]: 30
- Plant response rating, Morningglory ([2]; Postemergence, 125 g ai/ha): 0
- Morningglory plant response rating [2, 17]: 20
- Morningglory plant response rating [2, 18]: 0
- Morningglory plant response rating [2, 19]: 10
- Plant response rating, Crabgrass, Large ([3]; Postemergence, 125 g ai/ha): 40
- Crabgrass, Large plant response rating [3, 17]: 80
- Crabgrass, Large plant response rating [3, 18]: 40
- Crabgrass, Large plant response rating [3, 19]: 80
- Plant response rating, Corn ([4]; Postemergence, 125 g ai/ha): 0
- Corn plant response rating [4, 17]: 0
- Corn plant response rating [4, 18]: 0
- Corn plant response rating [4, 19]: 0
- Plant response rating, Pigweed ([5]; Postemergence, 125 g ai/ha): 0
- Pigweed plant response rating [5, 17]: 60
- Pigweed plant response rating [5, 18]: 60
- Pigweed plant response rating [5, 19]: 80
- Plant response rating, Velvetleaf ([6]; Postemergence, 125 g ai/ha): 0
- Velvetleaf plant response rating [6, 17]: 20
- Velvetleaf plant response rating [6, 18]: 0
- Velvetleaf plant response rating [6, 19]: 50
- Plant response rating, Barnyardgrass [7, 14]: 0
- Plant response rating, Barnyardgrass [7, 16]: 0
- Plant response rating, Foxtail, Giant ([8]; Postemergence, 125 g ai/ha): 50
- Foxtail, Giant plant response rating [8, 17]: 90
- Foxtail, Giant plant response rating [8, 18]: 60
- Foxtail, Giant plant response rating [8, 19]: 90
- Plant response rating, Barnyardgrass ([9]; Postemergence, 125 g ai/ha): 40
- Barnyardgrass plant response rating [9, 17]: 60
- Barnyardgrass plant response rating [9, 18]: 0
- Barnyardgrass plant response rating [9, 19]: 90
- Plant response rating, Sedge, Umbrella [10, 14]: 0
- Plant response rating, Sedge, Umbrella [10, 16]: 0
- Plant response rating, Rice [11, 14]: 0
- Plant response rating, Rice [11, 16]: 0
- Plant response rating, Wheat ([12]; Postemergence, 125 g ai/ha): 0
- Wheat plant response rating [12, 17]: 0
- Wheat plant response rating [12, 18]: 0
- Wheat plant response rating [12, 19]: 10
